Test results published in PubChem BioAssay (NCI).
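Cells were grown in 96-well plates and exposed to each compound for 48 hours at five concentrations; endpoints were interpolated linearly between bracketing concentrations, or set to the highest concentration if not reached. TGI denotes the concentration required for complete inhibition of growth.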

Key:
Experiment in all cases: NCI-60 cell line screen, 48 h
786-0 renal = tested on: 786-0 renal
A498 renal = tested on: A498 renal
A549 NSCLC = tested on: A549 NSCLC
BT-549 breast = tested on: BT-549 breast
CAKI-1 renal = tested on: CAKI-1 renal
CCRF-CEM leukemia = tested on: CCRF-CEM leukemia
COLO 205 colon = tested on: COLO 205 colon
DU-145 prostate = tested on: DU-145 prostate
EKVX NSCLC = tested on: EKVX NSCLC
HCC-2998 colon = tested on: HCC-2998 colon
HCT-116 colon = tested on: HCT-116 colon
HCT-15 colon = tested on: HCT-15 colon
HOP-62 NSCLC = tested on: HOP-62 NSCLC
HOP-92 NSCLC = tested on: HOP-92 NSCLC
HT29 colon = tested on: HT29 colon
IGROV1 ovarian = tested on: IGROV1 ovarian
K-562 leukemia = tested on: K-562 leukemia
KM12 colon = tested on: KM12 colon
LOX IMVI melanoma = tested on: LOX IMVI melanoma
M14 melanoma = tested on: M14 melanoma
MALME-3M melanoma = tested on: MALME-3M melanoma
MCF7 breast = tested on: MCF7 breast
MDA-MB-231 breast = tested on: MDA-MB-231 breast
MDA-MB-435 = tested on: MDA-MB-435
MDA-N = tested on: MDA-N
MOLT-4 leukemia = tested on: MOLT-4 leukemia
NCI-H226 lung = tested on: NCI-H226 lung
NCI-H23 lung = tested on: NCI-H23 lung
NCI/ADR-RES ovarian = tested on: NCI/ADR-RES ovarian
OVCAR-3 ovarian = tested on: OVCAR-3 ovarian
OVCAR-4 ovarian = tested on: OVCAR-4 ovarian
OVCAR-5 ovarian = tested on: OVCAR-5 ovarian
OVCAR-8 ovarian = tested on: OVCAR-8 ovarian
PC-3 prostate = tested on: PC-3 prostate
RPMI-8226 leukemia = tested on: RPMI-8226 leukemia
RXF 393 renal = tested on: RXF 393 renal
SF-268 CNS = tested on: SF-268 CNS
SF-295 CNS = tested on: SF-295 CNS
SF-539 CNS = tested on: SF-539 CNS
SK-MEL-2 melanoma = tested on: SK-MEL-2 melanoma
SK-MEL-28 melanoma = tested on: SK-MEL-28 melanoma
SK-MEL-5 melanoma = tested on: SK-MEL-5 melanoma
SK-OV-3 ovarian = tested on: SK-OV-3 ovarian
SN12C renal = tested on: SN12C renal
SNB-75 CNS = tested on: SNB-75 CNS
SR leukemia = tested on: SR leukemia
SW-620 colon = tested on: SW-620 colon
T-47D breast = tested on: T-47D breast
TK-10 renal = tested on: TK-10 renal
U251 CNS = tested on: U251 CNS
UACC-257 melanoma = tested on: UACC-257 melanoma
UACC-62 melanoma = tested on: UACC-62 melanoma
ACHN renal = tested on: ACHN renal
HL-60(TB) leukemia = tested on: HL-60(TB) leukemia
HS 578T breast = tested on: HS 578T breast
NCI-H460 lung = tested on: NCI-H460 lung
NCI-H522 lung = tested on: NCI-H522 lung
SNB-19 CNS = tested on: SNB-19 CNS
UO-31 renal = tested on: UO-31 renal

Measured: TGI

Fc1cccc(F)c1C1SCc2nc3cc4ccccc4cc3n21 (configuration not stated)
54.1 µM: HCC-2998 colon
> 100 µM: 786-0 renal | A549 NSCLC | BT-549 breast | CAKI-1 renal | COLO 205 colon | DU-145 prostate | EKVX NSCLC | HCT-116 colon | HOP-62 NSCLC | KM12 colon | LOX IMVI melanoma | M14 melanoma | MALME-3M melanoma | MCF7 breast | MDA-MB-231 breast | MDA-MB-435 | MDA-N | NCI-H226 lung | NCI-H23 lung | NCI/ADR-RES ovarian | OVCAR-5 ovarian | OVCAR-8 ovarian | PC-3 prostate | RXF 393 renal | SF-268 CNS | SF-295 CNS | SK-MEL-2 melanoma | SK-MEL-28 melanoma | SK-MEL-5 melanoma | SK-OV-3 ovarian | SN12C renal | SR leukemia | SW-620 colon | T-47D breast | TK-10 renal | U251 CNS | UACC-257 melanoma | UACC-62 melanoma
62.4 µM: CCRF-CEM leukemia
72.9 µM: IGROV1 ovarian
48.6 µM: K-562 leukemia
55 µM: HCT-15 colon
72.3 µM: SNB-75 CNS
36.7 µM: OVCAR-4 ovarian
69.2 µM: HOP-92 NSCLC
36.6 µM: OVCAR-3 ovarian
80.3 µM: HT29 colon
45.1 µM: SF-539 CNS
73.7 µM: RPMI-8226 leukemia
67.3 µM: A498 renal
81.5 µM: MOLT-4 leukemia

COc1cc(/C=C2\CCC/C(=C\c3ccc(OC(=O)CCCCC4CCSS4)c(OC)c3)C2=O)ccc1OC(=O)CCCCC1CCSS1 (configuration not stated)
> 100 µM: 786-0 renal | A498 renal | A549 NSCLC | ACHN renal | BT-549 breast | CCRF-CEM leukemia | COLO 205 colon | DU-145 prostate | EKVX NSCLC | HCT-116 colon | HCT-15 colon | HL-60(TB) leukemia | HOP-62 NSCLC | HS 578T breast | HT29 colon | IGROV1 ovarian | K-562 leukemia | KM12 colon | LOX IMVI melanoma | M14 melanoma | MALME-3M melanoma | MCF7 breast | MDA-MB-231 breast | MDA-MB-435 | MDA-N | MOLT-4 leukemia | NCI-H226 lung | NCI-H23 lung | NCI-H460 lung | NCI-H522 lung | NCI/ADR-RES ovarian | OVCAR-3 ovarian | OVCAR-4 ovarian | OVCAR-5 ovarian | OVCAR-8 ovarian | PC-3 prostate | RPMI-8226 leukemia | RXF 393 renal | SF-268 CNS | SF-295 CNS | SF-539 CNS | SK-MEL-2 melanoma | SK-MEL-28 melanoma | SK-MEL-5 melanoma | SK-OV-3 ovarian | SN12C renal | SNB-19 CNS | SNB-75 CNS | SW-620 colon | TK-10 renal | U251 CNS | UACC-257 melanoma | UACC-62 melanoma | UO-31 renal

OC1c2[nH]c3ccccc3c2CCN2CCCCC12 (configuration not stated)
> 100 µM: 786-0 renal | A498 renal | A549 NSCLC | ACHN renal | BT-549 breast | CAKI-1 renal | CCRF-CEM leukemia | COLO 205 colon | DU-145 prostate | EKVX NSCLC | HCC-2998 colon | HCT-116 colon | HCT-15 colon | HL-60(TB) leukemia | HOP-62 NSCLC | HOP-92 NSCLC | HT29 colon | IGROV1 ovarian | K-562 leukemia | KM12 colon | LOX IMVI melanoma | M14 melanoma | MALME-3M melanoma | MCF7 breast | MDA-MB-231 breast | MDA-MB-435 | MDA-N | MOLT-4 leukemia | NCI-H226 lung | NCI-H23 lung | NCI-H460 lung | NCI-H522 lung | NCI/ADR-RES ovarian | OVCAR-3 ovarian | OVCAR-4 ovarian | OVCAR-5 ovarian | OVCAR-8 ovarian | PC-3 prostate | RPMI-8226 leukemia | RXF 393 renal | SF-268 CNS | SF-295 CNS | SF-539 CNS | SK-MEL-2 melanoma | SK-MEL-28 melanoma | SK-OV-3 ovarian | SN12C renal | SNB-19 CNS | SNB-75 CNS | SR leukemia | SW-620 colon | T-47D breast | TK-10 renal | U251 CNS | UACC-257 melanoma | UACC-62 melanoma
